The text below walks through data of patent US7008905B2, “Method of combating undesired plant growth on cereals” (BASF Aktiengesellschaft, priority 2000, dated 2006).

What all share (format): in vivo
Data set [1] relates to grasses and broadleaf weeds. Kind of data set: Post-emergence test, overall weed control. The method, then:
(§1) These acetone solutions are diluted with water and the resulting formulations applied at dosage levels equivalent of about 0.030 to 0.240 kg per hectare of test compound per pot. After spraying the plants are placed an greenhouse benches and are cared for in the usual manner, commensurate with conventional greenhouse practices. From 2 to 4 weeks after treatment, the seedling plants are examined and rated according to the rating system provided above. A rating 0 indicates growth as untreated control, a rating 100 indicates death.

Data set [2] relates to Triticum aestivum variety “Kanzler”. Kind of data set: Post-emergence test, selectivity. The conditions noted are these: 2–4 weeks after treatment, rating 0-100 (100=death), Table 6. The method, then: as §1
Data set [3] deals with Triticum aestivum variety “Monopol”. Nature of the data set: Post-emergence test, selectivity. The note with it: 2–4 weeks after treatment, rating 0-100 (100=death), Table 6. The method, then: as §1
For a further data set, the system named is Setaria viridis. Nature of the data set: Post-emergence test, weed control. The note with it: 2–4 weeks after treatment, rating 0-100 (100=death), Table 5. In outline: (§2)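 Post-emergence spray; dose ~0.030–0.240 kg/ha/pot from acetone stock diluted in water. Greenhouse, 2–4 wk. Score 0 = untreated-like growth, 100 = death.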
A further data set has as its system Matricaria inodora. Nature of the data set: Post-emergence test, weed control. The note with it: 2–4 weeks after treatment, rating 0-100 (100=death), Table 5. In outline:
as §2

The subject of the next data set is Polygonum convolvulus. Kind of data set: Post-emergence test, weed control. The conditions noted are these: 2–4 weeks after treatment, rating 0-100 (100=death), Table 5. In outline: as §2
The subject of a further data set is wheat. Nature of the data set: Pre-emergence test, tolerance in wheat. In outline: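 Pre-emergence soil spray on recently sown prepared horticultural loam; dose 15/30/60/120/240 g a.i./ha, 900 l/ha. Formulation: acetone + 0.4% w/w alkylphenol-EO condensate, water-diluted. Readout: visual score at 3 wk, 0 (untreated) to 100 (dead).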
The next data set deals with barley. Nature of the data set: Pre-emergence test, tolerance in barley. How it is done: The pre-emergence tests involve spraying a liquid formulation of the compound onto the soil in which the seeds of the plant species mentioned above has recently been sown.
The soil used in the tests is a prepared horticultural loam. The formulations used in the tests are prepared from solutions of the test compounds in acetone containing 0.4% by weight of an alkylphenol/ethylene oxide condensate available under the trade mark TRITON X-155.
These acetone solutions are diluted with water and the resulting formulations applied at dosage levels corresponding to 15 g, 30 g, 60 g, 120 g or 240 g of active material per hectare in a volume equivalent to 900 liters per hectare. In these tests untreated sown soil is used as control. The herbicidal effects of the test compounds are assessed visually three weeks after spraying the soil and are recorded an a 0 to 100 scale. A rating 0 indicates growth as untreated control, a rating 100 indicates death. An increase of 10 unit an the linear scale approximates to a 10% increase in the level of effect. The results of the assessment are set out in Tables 1 to 4.

Each structure is given as a SMILES string.

As to `CCc1cc(Oc2cccc(C(F)(F)F)c2)nc(-c2ccc(C(F)(F)F)cc2)n1` [REF-3], in data set [1], the “weed control at wheat selective doses” value was “incomplete”. The “TRZAWK rating (Selectivity)” value is 12 in data set [2] (0.03 kg/ha), 15 in data set [2] (0.06 kg/ha), 25 in data set [2] (0.12 kg/ha) and 35 in data set [2] (0.24 kg/ha). Moreover, the “TRZAWM rating (Selectivity)” value is reported as 10 in data set [3] (0.03 kg/ha), 15 in data set [3] (0.06 kg/ha), 22 in data set [3] (0.12 kg/ha) and 30 in data set [3] (0.24 kg/ha). Besides, the “SETVI weed control rating” value in the data set with Setaria viridis (0.030 kg/ha) turned out to be 95; in the data set on Setaria viridis (0.060 kg/ha) it was 98; with Setaria viridis (0.120 kg/ha) it was 99; with Setaria viridis (0.240 kg/ha) it was 100. The “MATIN weed control rating” value is 65 in the data set on Matricaria inodora (0.030 kg/ha), 80 in the data set on Matricaria inodora (0.060 kg/ha), 85 with Matricaria inodora (0.120 kg/ha) and 85 in the data set on Matricaria inodora (0.240 kg/ha). Further, the “POLCO weed control rating” value in the data set on Polygonum convolvulus (0.060 kg/ha) is reported as 35; with Polygonum convolvulus (0.120 kg/ha) it was 55; in the data set with Polygonum convolvulus (0.240 kg/ha), 80. Moreover, in the data set with wheat (in vivo), the “maximum tolerated dose in wheat / dose at which sufficiently selective in wheat” value was found to be 60 g/ha.

`FC(F)(F)c1ccc(-c2nccc(Oc3cccc(C(F)(F)F)c3)n2)cc1` [TTP, 4-(3-trifluoromethylphenoxy)-2-(4-trifluoromethyl-phenyl)-pyrimidine]: the “TRZAWK rating (Selectivity)” value is recorded as 2 in data set [2] (0.03 kg/ha), 8 in data set [2] (0.06 kg/ha), 8 in data set [2] (0.12 kg/ha) and 15 in data set [2] (0.24 kg/ha). For the same compound, the “TRZAWM rating (Selectivity)” value in data set [3] (0.03 kg/ha) is 1; in data set [3] (0.06 kg/ha), 8; in data set [3] (0.12 kg/ha), 8; in data set [3] (0.24 kg/ha) it was 12. Also, the “SETVI weed control rating” value in the data set on Setaria viridis (0.030 kg/ha) turned out to be 93; with Setaria viridis (0.060 kg/ha), 97; in the data set on Setaria viridis (0.120 kg/ha) it was 97; in the data set on Setaria viridis (0.240 kg/ha), 100. Besides, the “MATIN weed control rating” value with Matricaria inodora (0.030 kg/ha) is 50; with Matricaria inodora (0.060 kg/ha), 90; in the data set with Matricaria inodora (0.120 kg/ha), 75; in the data set with Matricaria inodora (0.240 kg/ha), 90. The “POLCO weed control rating” value in the data set on Polygonum convolvulus (0.030 kg/ha) amounted to 10; in the data set on Polygonum convolvulus (0.060 kg/ha), 60; with Polygonum convolvulus (0.120 kg/ha) it was 35; in the data set on Polygonum convolvulus (0.240 kg/ha), 90. Moreover, in the data set with wheat (pre-emergence), the “maximum tolerated dose in wheat / dose at which sufficiently selective in wheat” value is 240 g/ha. Moreover, in the data set with barley, the “dose at which sufficiently selective in barley” value was found to be 15 g/ha.

On to `Cc1nc(-c2ccc(C(F)(F)F)cc2)nc(Oc2cccc(C(F)(F)F)c2)c1C` [REF-2], for which the “TRZAWK rating (Selectivity)” value is listed as 3 in data set [2] (0.03 kg/ha), 5 in data set [2] (0.06 kg/ha), 8 in data set [2] (0.12 kg/ha) and 10 in data set [2] (0.24 kg/ha). For the same compound, the “TRZAWM rating (Selectivity)” value in data set [3] (0.03 kg/ha) was 2; in data set [3] (0.06 kg/ha), 5; in data set [3] (0.12 kg/ha), 8; in data set [3] (0.24 kg/ha) it was 8. For the same compound, the “SETVI weed control rating” value in the data set with Setaria viridis (0.030 kg/ha) was 30; in the data set on Setaria viridis (0.060 kg/ha), 55; with Setaria viridis (0.120 kg/ha), 96; with Setaria viridis (0.240 kg/ha) it was 100. Moreover, the “MATIN weed control rating” value with Matricaria inodora (0.030 kg/ha) is given as 35; in the data set on Matricaria inodora (0.060 kg/ha), 45; in the data set with Matricaria inodora (0.120 kg/ha) it was 55; in the data set with Matricaria inodora (0.240 kg/ha), 60. Besides, the “POLCO weed control rating” value turned out to be 0 with Polygonum convolvulus (0.060 kg/ha), 25 in the data set on Polygonum convolvulus (0.120 kg/ha) and 40 with Polygonum convolvulus (0.240 kg/ha).

Regarding `Cc1cnc(-c2ccc(C(F)(F)F)cc2)nc1Oc1cccc(C(F)(F)F)c1` [REF-1], the “TRZAWK rating (Selectivity)” value is listed as 18 in data set [2] (0.03 kg/ha), 25 in data set [2] (0.06 kg/ha), 30 in data set [2] (0.12 kg/ha) and 40 in data set [2] (0.24 kg/ha). In addition, the “TRZAWM rating (Selectivity)” value came to 15 in data set [3] (0.03 kg/ha), 22 in data set [3] (0.06 kg/ha), 30 in data set [3] (0.12 kg/ha) and 45 in data set [3] (0.24 kg/ha). In addition, the “SETVI weed control rating” value in the data set with Setaria viridis (0.030 kg/ha) is 99; with Setaria viridis (0.060 kg/ha), 99; in the data set on Setaria viridis (0.120 kg/ha) it was 100; with Setaria viridis (0.240 kg/ha), 100. Moreover, the “MATIN weed control rating” value worked out at 70 in the data set on Matricaria inodora (0.030 kg/ha), 75 with Matricaria inodora (0.060 kg/ha), 75 with Matricaria inodora (0.120 kg/ha) and 85 with Matricaria inodora (0.240 kg/ha). In addition, the figures for the “POLCO weed control rating” value in the data set on Polygonum convolvulus (0.030 kg/ha), in the data set with Polygonum convolvulus (0.120 kg/ha) and with Polygonum convolvulus (0.240 kg/ha) were 15, 25 and 70, respectively. The “dose at which sufficiently selective in barley” value in the data set on barley was “did not exhibit acceptable tolerance in barley at any dose”.
